In ChEMBL document CHEMBL1151901, “3-(aminomethyl)piperazine-2,5-dione as a novel NMDA glycine site inhibitor from the chemical universe database GDB” (Bioorg Med Chem Lett, 2009):
pIC50, pKd: −log10 of the molar value. Calls of active or inactive are those of the source. The rule behind the calls is not given here.

Tests used:
[1] = molecular target: Glutamate NMDA receptor; Grin1/Grin2a (Rattus norvegicus, UniProt P35439+Q00959); experiment: Activity at rat NR1/NR2A receptor expressed in Xenopus oocytes assessed as inhibition of glycine-induced electrophysiological response; type: cell-based, Oocyte
Sequence of Glutamate NMDA receptor; Grin1/Grin2a (Q00959 whole entry, other chains not shown): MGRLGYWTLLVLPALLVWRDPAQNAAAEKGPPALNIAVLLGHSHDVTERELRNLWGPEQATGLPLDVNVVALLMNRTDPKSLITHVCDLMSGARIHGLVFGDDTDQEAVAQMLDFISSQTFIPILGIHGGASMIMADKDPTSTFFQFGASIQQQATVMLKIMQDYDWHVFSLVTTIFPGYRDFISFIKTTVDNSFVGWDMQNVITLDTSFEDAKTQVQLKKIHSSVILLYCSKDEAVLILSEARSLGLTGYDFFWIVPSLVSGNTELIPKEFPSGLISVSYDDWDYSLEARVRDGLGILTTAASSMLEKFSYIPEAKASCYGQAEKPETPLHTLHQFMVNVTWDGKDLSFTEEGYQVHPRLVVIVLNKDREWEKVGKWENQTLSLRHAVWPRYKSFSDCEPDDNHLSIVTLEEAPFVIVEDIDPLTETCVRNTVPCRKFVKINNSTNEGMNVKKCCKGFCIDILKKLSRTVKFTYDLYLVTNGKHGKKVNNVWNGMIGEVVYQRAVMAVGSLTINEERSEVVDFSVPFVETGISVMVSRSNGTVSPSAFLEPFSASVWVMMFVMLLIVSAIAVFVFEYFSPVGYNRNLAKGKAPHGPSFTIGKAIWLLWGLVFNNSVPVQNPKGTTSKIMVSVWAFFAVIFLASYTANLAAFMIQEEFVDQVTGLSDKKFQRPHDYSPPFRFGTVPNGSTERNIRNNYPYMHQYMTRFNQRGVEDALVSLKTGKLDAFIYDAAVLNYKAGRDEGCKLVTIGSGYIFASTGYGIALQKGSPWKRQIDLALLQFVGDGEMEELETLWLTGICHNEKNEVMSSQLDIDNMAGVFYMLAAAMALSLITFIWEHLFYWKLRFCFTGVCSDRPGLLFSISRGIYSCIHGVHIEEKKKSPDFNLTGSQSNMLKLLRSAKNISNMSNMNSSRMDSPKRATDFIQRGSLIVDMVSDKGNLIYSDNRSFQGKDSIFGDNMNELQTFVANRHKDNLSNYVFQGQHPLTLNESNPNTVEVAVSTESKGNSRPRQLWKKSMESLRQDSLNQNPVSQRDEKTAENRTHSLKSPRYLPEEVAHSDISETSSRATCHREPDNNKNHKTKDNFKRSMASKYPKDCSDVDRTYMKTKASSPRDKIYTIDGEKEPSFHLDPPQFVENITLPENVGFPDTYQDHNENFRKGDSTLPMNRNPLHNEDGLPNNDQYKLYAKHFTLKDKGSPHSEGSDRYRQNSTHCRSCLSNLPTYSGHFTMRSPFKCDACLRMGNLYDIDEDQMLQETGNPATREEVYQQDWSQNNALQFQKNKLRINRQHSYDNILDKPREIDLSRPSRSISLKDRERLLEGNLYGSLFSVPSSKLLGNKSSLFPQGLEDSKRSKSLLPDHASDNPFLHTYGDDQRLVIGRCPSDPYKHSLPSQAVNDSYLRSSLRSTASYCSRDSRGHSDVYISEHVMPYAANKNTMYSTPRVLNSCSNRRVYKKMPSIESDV

[2] = molecular target: Glutamate NMDA receptor (Rattus norvegicus) (UniProt P35439+Q00959+Q00960+Q00961+Q62645+Q8VHN2+Q9R1M7); experiment: Displacement of [3H]MDL105519 from rat brain NMDA receptor glycine binding site at 100 uM by Packard Topcount scintillation counter

pIC50 [1]	Activity [2]	inhibition [2] [%]	pKd [1]	Structure (SMILES)
4.19	–	–	–	NCCCC(=O)NCC(=O)O
–	inactive	–	–	NCC1CNC(=O)C(=O)N1 (racemic)
3.43	–	30	4.30	NC[C@@H]1NC(=O)CNC1=O
4.55	–	–	–	C[C@H](N)CC(=O)NCC(=O)O
